Assay results reported in ChEMBL document CHEMBL2401655, “Synthesis and antiprotozoal activity of novel 2-{[2-(1H-imidazol-1-yl)ethyl]sulfanyl}-1H-benzimidazole derivatives” (Bioorg Med Chem Lett, 2013).

What was measured:
Format in all cases: functional, organism-based
[1] = tested on: Entamoeba histolytica; experiment: Antiprotozoal activity against trophozoite stage of Entamoeba histolytica HM-1:IMSS assessed as growth inhibition after 48 hrs by haemocytometric analysis
[2] = tested on: Giardia intestinalis; experiment: Antiprotozoal activity against trophozoite stage of Giardia intestinalis IMSS:0981:1 assessed as growth inhibition after 48 hrs by haemocytometric analysis; settings: Giardia duodenalis, IMSS:0981:1, 48 h
[3] = tested on: Trichomonas vaginalis; experiment: Antiprotozoal activity against trophozoite stage of Trichomonas vaginalis GT3 assessed as growth inhibition after 48 hrs by haemocytometric analysis; settings: GT3, 48 h

Structure (SMILES) | IC50 [1] [µM] | IC50 [2] [µM] | IC50 [3] [µM]
Cn1c(SCCn2ccnc2)nc2cc(Cl)ccc21 | 0.066 | 0.0666 | 0.135
Cn1c(SCCn2ccnc2)nc2cc(Cl)c(Cl)cc21 | 0.0642 | 0.0688 | 0.0963
COC(=O)c1ccc2[nH]c(SCCn3ccnc3)nc2c1 | 0.0612 | 0.0777 | 0.111
COC(=O)c1cc2nc(SCCn3ccnc3)[nH]c2cc1Cl | 0.0579 | 0.0549 | 0.0727
COC(=O)c1ccc2nc(SCCn3ccnc3)n(C)c2c1 | 0.0522 | 0.0569 | 0.114
COC(=O)c1cc2c(cc1Cl)nc(SCCn1ccnc1)n2C | 0.0428 | 0.0556 | 0.0869
COC(=O)c1ccc2c(c1)nc(SCCn1ccnc1)n2C | 0.0427 | 0.0616 | 0.0774
COC(=O)c1cc2nc(SCCn3ccnc3)n(C)c2cc1Cl | 0.0513 | 0.0442 | 0.0926
CCOc1ccc2[nH]c(SCCn3ccnc3)nc2c1 | 0.0428 | 0.0566 | 0.0717
CCOc1cc2nc(SCCn3ccnc3)[nH]c2cc1Cl | 0.062 | 0.0465 | 0.0991
CCOc1ccc2nc(SCCn3ccnc3)n(C)c2c1 | 0.0408 | 0.0452 | 0.0717
CCOc1cc2c(cc1Cl)nc(SCCn1ccnc1)n2C | 0.046 | 0.0356 | 0.0698
CCOc1ccc2c(c1)nc(SCCn1ccnc1)n2C | 0.0298 | 0.0083 | 0.0761
CCOc1cc2nc(SCCn3ccnc3)n(C)c2cc1Cl | 0.0148 | 0.0208 | 0.098
Cn1c(SCCn2ccnc2)nc2ccc(Cl)cc21 | 0.0672 | 0.0626 | 0.128
c1ccc2[nH]c(SCCn3ccnc3)nc2c1 | 0.147 | 0.117 | 0.178
Clc1ccc2[nH]c(SCCn3ccnc3)nc2c1 | 0.0735 | 0.0807 | 0.17
Clc1cc2nc(SCCn3ccnc3)[nH]c2cc1Cl | 0.0591 | 0.0766 | 0.141
Cn1c(SCCn2ccnc2)nc2ccccc21 | 0.0774 | 0.0871 | 0.149
Cc1ncc([N+](=O)[O-])n1CCO [METRONIDAZOLE] | 0.38 | – | –
